Results: ChEMBL document CHEMBL5723582, “Data for DCP probe T-10430” (2024)

Legend:
[1] = biological target: Adhesion G protein-coupled receptor F5 (Homo sapiens) (UniProt Q8IZF2); test: RLU of GPR116 at 1.0 µM in the […] PRESTO-Tango GPCRome screen; conditions: Compound concentration 1.0 uM
[2] = biological target: Metabotropic glutamate receptor 6 (Homo sapiens) (UniProt O15303); test: RLU of GRM6 at 1.0 µM in the Aequorin PRESTO-Tango GPCRome screen; conditions: Compound concentration 1.0 uM
[3] = biological target: 5-hydroxytryptamine receptor 1A (Homo sapiens) (UniProt P08908); test: RLU of HTR1A at 1.0 µM in the Aequorin PRESTO-Tango GPCRome screen; conditions: Compound concentration 1.0 uM
[4] = biological target: Parathyroid hormone 2 receptor (Homo sapiens) (UniProt P49190); test: RLU of PTH2R at 1.0 µM in the […] PRESTO-Tango GPCRome screen; conditions: Compound concentration 1.0 uM
[5] = biological target: Probable G-protein coupled receptor 141 (Homo sapiens) (UniProt Q7Z602); test: RLU of GPR141 at 1.0 µM in the […] PRESTO-Tango GPCRome screen; conditions: Compound concentration 1.0 uM
[6] = biological target: Adenosine receptor A1 (Homo sapiens) (UniProt P30542); test: RLU of ADORA1 at 1.0 µM in the […] PRESTO-Tango GPCRome screen; conditions: Compound concentration 1.0 uM
[7] = biological target: Mas-related G-protein coupled receptor MRG (Homo sapiens) (UniProt P35410); test: RLU of MAS1L at 1.0 µM in the […] PRESTO-Tango GPCRome screen; conditions: Compound concentration 1.0 uM
[8] = biological target: Proteinase-activated receptor 4 (Homo sapiens) (UniProt Q96RI0); test: RLU of F2RL3 at 1.0 µM in the […] PRESTO-Tango GPCRome screen; conditions: Compound concentration 1.0 uM
[9] = biological target: Hydroxycarboxylic acid receptor 1 (Homo sapiens) (UniProt Q9BXC0); test: RLU of HCA1 at 1.0 µM in the Aequorin PRESTO-Tango GPCRome screen; conditions: Compound concentration 1.0 uM
[10] = biological target: Mas-related G-protein coupled receptor member X2 (Homo sapiens) (UniProt Q96LB1); test: RLU of MRGPRX2 at 1.0 µM in the […] PRESTO-Tango GPCRome screen; conditions: Compound concentration 1.0 uM
[11] = biological target: S-geranylgeranyl-glutathione receptor P2RY8 (Homo sapiens) (UniProt Q86VZ1); test: RLU of P2RY8 at 1.0 µM in the […] PRESTO-Tango GPCRome screen; conditions: Compound concentration 1.0 uM
[12] = RLU of HCTR2 at 1.0 µM in the Aequorin PRESTO-Tango GPCRome screen; conditions: Homo sapiens; Compound concentration 1.0 uM
[13] = biological target: N-formyl peptide receptor 3 (Homo sapiens) (UniProt P25089); test: RLU of FPR3 at 1.0 µM in the […] PRESTO-Tango GPCRome screen; conditions: Compound concentration 1.0 uM
[14] = biological target: Endothelin receptor type B (Homo sapiens) (UniProt P24530); test: RLU of EDNRB at 1.0 µM in the […] PRESTO-Tango GPCRome screen; conditions: Compound concentration 1.0 uM
[15] = biological target: Chemerin-like receptor 1 (Homo sapiens) (UniProt Q99788); test: RLU of CMKLR1 at 1.0 µM in the […] PRESTO-Tango GPCRome screen; conditions: Compound concentration 1.0 uM
[16] = biological target: Probable G-protein coupled receptor 21 (Homo sapiens) (UniProt Q99679); test: RLU of GPR21 at 1.0 µM in the […] PRESTO-Tango GPCRome screen; conditions: Compound concentration 1.0 uM
[17] = biological target: Thromboxane A2 receptor (Homo sapiens) (UniProt P21731); test: RLU of TBXA2R at 1.0 µM in the […] PRESTO-Tango GPCRome screen; conditions: Compound concentration 1.0 uM
[18] = biological target: Type-2 angiotensin II receptor (Homo sapiens) (UniProt P50052); test: RLU of AGTR2 at 1.0 µM in the […] PRESTO-Tango GPCRome screen; conditions: Compound concentration 1.0 uM
[19] = biological target: Somatostatin receptor type 1 (Homo sapiens) (UniProt P30872); test: RLU of SSTR1 at 1.0 µM in the […] PRESTO-Tango GPCRome screen; conditions: Compound concentration 1.0 uM
[20] = biological target: Metabotropic glutamate receptor 2 (Homo sapiens) (UniProt Q14416); test: RLU of GRM2 at 1.0 µM in the Aequorin PRESTO-Tango GPCRome screen; conditions: Compound concentration 1.0 uM
[21] = biological target: Free fatty acid receptor 2 (Homo sapiens) (UniProt O15552); test: RLU of FFA2 (GPR43) at 1.0 µM in the […] PRESTO-Tango GPCRome screen; conditions: Compound concentration 1.0 uM
[22] = biological target: Prostaglandin D2 receptor (Homo sapiens) (UniProt Q13258); test: RLU of PTGDR at 1.0 µM in the […] PRESTO-Tango GPCRome screen; conditions: Compound concentration 1.0 uM
[23] = biological target: P2Y purinoceptor 12 (Homo sapiens) (UniProt Q9H244); test: RLU of P2RY12 at 1.0 µM in the […] PRESTO-Tango GPCRome screen; conditions: Compound concentration 1.0 uM
[24] = biological target: Histamine H2 receptor (Homo sapiens) (UniProt P25021); test: RLU of HRH2 at 1.0 µM in the Aequorin PRESTO-Tango GPCRome screen; conditions: Compound concentration 1.0 uM
[25] = biological target: Sphingosine 1-phosphate receptor 3 (Homo sapiens) (UniProt Q99500); test: RLU of S1PR3 at 1.0 µM in the […] PRESTO-Tango GPCRome screen; conditions: Compound concentration 1.0 uM
[26] = biological target: Atypical chemokine receptor 3 (Homo sapiens) (UniProt P25106); test: RLU of CXCR7 at 1.0 µM in the […] PRESTO-Tango GPCRome screen; conditions: Compound concentration 1.0 uM
[27] = biological target: G-protein coupled receptor 55 (Homo sapiens) (UniProt Q9Y2T6); test: RLU of GPR55 at 1.0 µM in the […] PRESTO-Tango GPCRome screen; conditions: Compound concentration 1.0 uM
[28] = biological target: Probable G-protein coupled receptor 149 (Homo sapiens) (UniProt Q86SP6); test: RLU of GPR149 at 1.0 µM in the […] PRESTO-Tango GPCRome screen; conditions: Compound concentration 1.0 uM
[29] = biological target: Apelin receptor (Homo sapiens) (UniProt P35414); test: RLU of APJ at 1.0 µM in the […] PRESTO-Tango GPCRome screen; conditions: Compound concentration 1.0 uM
[30] = biological target: P2Y purinoceptor 14 (Homo sapiens) (UniProt Q15391); test: RLU of P2RY14 at 1.0 µM in the […] PRESTO-Tango GPCRome screen; conditions: Compound concentration 1.0 uM
[31] = biological target: G-protein coupled receptor family C group 6 member A (Homo sapiens) (UniProt Q5T6X5); test: RLU of GPRC6A at 1.0 µM in the […] PRESTO-Tango GPCRome screen; conditions: Compound concentration 1.0 uM
[32] = biological target: Sphingosine 1-phosphate receptor 4 (Homo sapiens) (UniProt O95977); test: RLU of S1PR4 at 1.0 µM in the […] PRESTO-Tango GPCRome screen; conditions: Compound concentration 1.0 uM
[33] = biological target: Free fatty acid receptor 3 (Homo sapiens) (UniProt O14843); test: RLU of FFA3 (GPR41) at 1.0 µM in the […] PRESTO-Tango GPCRome screen; conditions: Compound concentration 1.0 uM
[34] = biological target: Prostaglandin E2 receptor EP4 subtype (Homo sapiens) (UniProt P35408); test: RLU of PTGER4 at 1.0 µM in the […] PRESTO-Tango GPCRome screen; conditions: Compound concentration 1.0 uM
[35] = biological target: Probable G-protein coupled receptor 34 (Homo sapiens) (UniProt Q9UPC5); test: RLU of GPR34 at 1.0 µM in the […] PRESTO-Tango GPCRome screen; conditions: Compound concentration 1.0 uM

Proteinase-activated receptor 4 (Homo sapiens), sequence (Q96RI0 whole entry): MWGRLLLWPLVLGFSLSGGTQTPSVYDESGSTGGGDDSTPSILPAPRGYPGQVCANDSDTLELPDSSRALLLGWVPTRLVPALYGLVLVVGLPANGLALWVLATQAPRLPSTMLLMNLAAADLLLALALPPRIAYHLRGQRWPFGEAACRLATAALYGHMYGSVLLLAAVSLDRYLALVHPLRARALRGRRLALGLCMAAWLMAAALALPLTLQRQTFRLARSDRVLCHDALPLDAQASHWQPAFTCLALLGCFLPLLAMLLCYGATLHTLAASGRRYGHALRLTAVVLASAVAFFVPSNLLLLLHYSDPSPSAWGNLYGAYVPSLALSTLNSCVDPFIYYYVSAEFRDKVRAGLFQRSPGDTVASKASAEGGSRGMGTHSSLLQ
Free fatty acid receptor 2 (Homo sapiens), sequence (O15552 whole entry): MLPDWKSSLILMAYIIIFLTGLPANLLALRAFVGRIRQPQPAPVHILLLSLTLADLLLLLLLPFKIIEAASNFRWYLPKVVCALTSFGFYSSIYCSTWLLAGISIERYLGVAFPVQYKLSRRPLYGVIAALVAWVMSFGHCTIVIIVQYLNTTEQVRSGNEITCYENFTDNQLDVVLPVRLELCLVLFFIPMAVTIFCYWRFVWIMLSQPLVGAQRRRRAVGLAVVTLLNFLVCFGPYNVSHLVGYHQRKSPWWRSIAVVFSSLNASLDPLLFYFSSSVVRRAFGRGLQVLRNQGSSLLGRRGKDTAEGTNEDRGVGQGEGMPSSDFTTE
Free fatty acid receptor 3 (Homo sapiens), sequence (O14843 whole entry): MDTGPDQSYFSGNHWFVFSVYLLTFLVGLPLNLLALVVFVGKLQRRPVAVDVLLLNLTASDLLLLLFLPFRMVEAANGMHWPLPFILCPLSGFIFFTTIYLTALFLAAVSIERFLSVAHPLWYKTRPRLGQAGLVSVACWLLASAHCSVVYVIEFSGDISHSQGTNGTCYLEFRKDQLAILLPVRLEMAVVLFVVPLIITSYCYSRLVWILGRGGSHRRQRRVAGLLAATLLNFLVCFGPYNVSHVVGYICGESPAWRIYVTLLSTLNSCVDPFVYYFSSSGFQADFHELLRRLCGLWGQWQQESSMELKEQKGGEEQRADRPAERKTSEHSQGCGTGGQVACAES
Parathyroid hormone 2 receptor (Homo sapiens), sequence (P49190 whole entry): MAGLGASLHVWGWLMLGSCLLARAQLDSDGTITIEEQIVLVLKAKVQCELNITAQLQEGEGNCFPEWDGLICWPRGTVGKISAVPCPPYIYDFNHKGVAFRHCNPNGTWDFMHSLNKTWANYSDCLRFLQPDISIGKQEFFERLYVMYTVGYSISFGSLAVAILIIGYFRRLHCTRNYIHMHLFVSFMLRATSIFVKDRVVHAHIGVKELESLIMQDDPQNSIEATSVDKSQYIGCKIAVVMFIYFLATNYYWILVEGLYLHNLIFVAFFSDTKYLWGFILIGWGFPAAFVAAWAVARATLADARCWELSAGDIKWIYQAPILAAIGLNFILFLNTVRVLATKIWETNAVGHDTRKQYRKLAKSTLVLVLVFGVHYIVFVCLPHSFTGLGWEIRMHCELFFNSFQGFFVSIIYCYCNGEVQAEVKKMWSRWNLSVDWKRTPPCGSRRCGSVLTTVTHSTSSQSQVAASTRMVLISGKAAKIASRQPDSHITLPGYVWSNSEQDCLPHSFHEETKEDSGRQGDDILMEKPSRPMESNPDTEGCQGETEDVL
S-geranylgeranyl-glutathione receptor P2RY8 (Homo sapiens), sequence (Q86VZ1 whole entry): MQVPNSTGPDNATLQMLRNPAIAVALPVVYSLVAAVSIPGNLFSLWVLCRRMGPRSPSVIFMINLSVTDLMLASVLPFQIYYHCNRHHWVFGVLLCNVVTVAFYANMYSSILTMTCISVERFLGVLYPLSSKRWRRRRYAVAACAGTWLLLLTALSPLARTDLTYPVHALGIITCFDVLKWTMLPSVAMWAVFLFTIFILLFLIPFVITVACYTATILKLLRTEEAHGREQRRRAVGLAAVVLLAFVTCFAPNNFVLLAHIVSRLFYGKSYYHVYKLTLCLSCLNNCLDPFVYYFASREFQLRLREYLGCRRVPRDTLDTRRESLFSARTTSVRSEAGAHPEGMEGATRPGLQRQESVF
Probable G-protein coupled receptor 141 (Homo sapiens), sequence (Q7Z602 whole entry): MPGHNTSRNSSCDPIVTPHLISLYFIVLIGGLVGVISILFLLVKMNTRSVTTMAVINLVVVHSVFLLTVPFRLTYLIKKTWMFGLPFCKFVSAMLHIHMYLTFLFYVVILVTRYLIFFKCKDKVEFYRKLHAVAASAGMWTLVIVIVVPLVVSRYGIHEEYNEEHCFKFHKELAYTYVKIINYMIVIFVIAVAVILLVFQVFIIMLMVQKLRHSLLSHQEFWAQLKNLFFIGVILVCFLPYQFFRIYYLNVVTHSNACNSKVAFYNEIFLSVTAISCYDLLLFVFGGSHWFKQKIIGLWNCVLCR
Thromboxane A2 receptor (Homo sapiens), sequence (P21731 whole entry): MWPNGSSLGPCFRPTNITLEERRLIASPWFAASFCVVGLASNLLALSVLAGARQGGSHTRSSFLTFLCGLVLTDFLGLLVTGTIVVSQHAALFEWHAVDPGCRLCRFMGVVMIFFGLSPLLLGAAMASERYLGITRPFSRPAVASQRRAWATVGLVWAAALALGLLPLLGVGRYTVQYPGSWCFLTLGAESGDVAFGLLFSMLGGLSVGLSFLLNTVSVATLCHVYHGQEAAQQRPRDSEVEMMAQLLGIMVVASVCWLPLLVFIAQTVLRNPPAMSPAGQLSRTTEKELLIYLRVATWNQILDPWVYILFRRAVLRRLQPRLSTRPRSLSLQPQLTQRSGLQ
Mas-related G-protein coupled receptor member X2 (Homo sapiens), sequence (Q96LB1 whole entry): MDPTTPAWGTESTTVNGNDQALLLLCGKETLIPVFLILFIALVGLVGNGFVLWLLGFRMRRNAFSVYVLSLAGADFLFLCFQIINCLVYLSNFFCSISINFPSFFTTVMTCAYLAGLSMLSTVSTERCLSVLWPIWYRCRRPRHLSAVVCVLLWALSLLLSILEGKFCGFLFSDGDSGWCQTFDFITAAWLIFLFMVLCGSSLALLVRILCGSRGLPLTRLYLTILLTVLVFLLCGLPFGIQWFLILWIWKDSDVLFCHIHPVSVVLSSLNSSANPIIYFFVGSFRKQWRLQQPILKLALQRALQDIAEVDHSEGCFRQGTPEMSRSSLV
P2Y purinoceptor 12 (Homo sapiens), sequence (Q9H244 whole entry): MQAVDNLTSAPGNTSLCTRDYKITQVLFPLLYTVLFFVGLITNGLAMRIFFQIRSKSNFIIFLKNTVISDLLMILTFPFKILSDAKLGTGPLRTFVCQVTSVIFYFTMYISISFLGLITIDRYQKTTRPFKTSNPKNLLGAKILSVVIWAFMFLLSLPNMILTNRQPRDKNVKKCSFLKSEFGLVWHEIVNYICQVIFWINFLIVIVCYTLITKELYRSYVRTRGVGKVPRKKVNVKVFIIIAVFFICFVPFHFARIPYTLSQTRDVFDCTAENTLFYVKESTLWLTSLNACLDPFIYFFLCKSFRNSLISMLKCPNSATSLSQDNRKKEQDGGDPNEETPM
Sphingosine 1-phosphate receptor 3 (Homo sapiens), sequence (Q99500 whole entry): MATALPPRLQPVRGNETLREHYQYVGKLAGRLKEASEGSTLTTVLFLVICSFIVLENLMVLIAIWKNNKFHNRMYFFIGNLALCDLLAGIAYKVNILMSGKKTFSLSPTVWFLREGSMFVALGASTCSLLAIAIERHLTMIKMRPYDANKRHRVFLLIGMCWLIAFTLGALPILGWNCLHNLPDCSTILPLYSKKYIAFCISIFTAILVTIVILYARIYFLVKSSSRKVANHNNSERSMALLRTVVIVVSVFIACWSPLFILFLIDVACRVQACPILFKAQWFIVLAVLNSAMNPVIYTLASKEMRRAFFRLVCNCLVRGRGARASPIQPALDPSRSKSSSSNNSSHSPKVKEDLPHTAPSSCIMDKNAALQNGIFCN
Probable G-protein coupled receptor 149 (Homo sapiens), sequence (Q86SP6 whole entry): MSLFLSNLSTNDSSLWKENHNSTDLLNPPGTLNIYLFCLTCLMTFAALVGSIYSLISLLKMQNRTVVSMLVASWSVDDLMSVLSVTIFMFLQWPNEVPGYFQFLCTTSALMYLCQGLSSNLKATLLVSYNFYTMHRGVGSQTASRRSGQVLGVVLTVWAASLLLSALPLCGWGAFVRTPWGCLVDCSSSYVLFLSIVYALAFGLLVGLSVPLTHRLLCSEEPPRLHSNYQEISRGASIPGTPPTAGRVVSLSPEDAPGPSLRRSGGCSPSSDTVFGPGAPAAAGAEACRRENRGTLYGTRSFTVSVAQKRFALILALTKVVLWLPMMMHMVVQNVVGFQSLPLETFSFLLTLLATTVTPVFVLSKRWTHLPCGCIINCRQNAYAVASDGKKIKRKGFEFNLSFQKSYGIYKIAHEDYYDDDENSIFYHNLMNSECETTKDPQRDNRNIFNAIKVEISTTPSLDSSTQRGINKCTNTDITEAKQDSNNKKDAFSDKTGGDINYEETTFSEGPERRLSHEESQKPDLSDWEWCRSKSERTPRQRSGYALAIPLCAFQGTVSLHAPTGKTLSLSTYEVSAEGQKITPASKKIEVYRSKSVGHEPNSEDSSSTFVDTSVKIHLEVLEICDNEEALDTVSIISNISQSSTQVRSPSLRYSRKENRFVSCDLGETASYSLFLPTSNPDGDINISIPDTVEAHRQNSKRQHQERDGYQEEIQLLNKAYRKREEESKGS
Mas-related G-protein coupled receptor MRG (Homo sapiens), sequence (P35410 whole entry): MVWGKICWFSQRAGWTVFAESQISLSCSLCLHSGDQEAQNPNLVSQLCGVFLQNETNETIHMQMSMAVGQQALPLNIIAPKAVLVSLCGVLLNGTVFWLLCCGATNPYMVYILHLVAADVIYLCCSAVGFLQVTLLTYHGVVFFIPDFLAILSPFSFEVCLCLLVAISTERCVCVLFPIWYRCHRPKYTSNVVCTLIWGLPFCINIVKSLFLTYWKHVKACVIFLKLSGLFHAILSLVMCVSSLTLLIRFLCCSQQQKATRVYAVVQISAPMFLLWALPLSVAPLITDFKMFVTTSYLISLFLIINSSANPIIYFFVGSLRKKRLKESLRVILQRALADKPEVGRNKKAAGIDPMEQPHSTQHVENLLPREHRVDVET

CCCCC(=O)N1CC2(C1)CN(c1ccccc1-c1nnn[nH]1)C2
RLU [1]: -663 | RLU [2]: -158 | RLU [3]: 1530 | RLU [4]: -1530 | RLU [5]: 2790 | RLU [6]: 6200 | RLU [7]: 2610 | RLU [8]: 125 | RLU [9]: 583 | RLU [10]: -9420 | RLU [11]: 1330 | RLU [12]: 2840 | RLU [13]: 2840 | RLU [14]: -88.5 | RLU [15]: -333 | RLU [16]: -483 | RLU [17]: 233 | RLU [18]: 5320 | RLU [19]: -1070 | RLU [20]: -1460 | RLU [21]: -5970 | RLU [22]: 375 | RLU [23]: -34.4 | RLU [24]: 84.8 | RLU [25]: -1650 | RLU [26]: -7340 | RLU [27]: 602000 | RLU [28]: -2140 | RLU [29]: 5300 | RLU [30]: -5260 | RLU [31]: -9110 | RLU [32]: -471 | RLU [33]: 1880 | RLU [34]: 620 | RLU [35]: 5570
